Source: USRE48267E1, “Variants of C-type natriuretic peptide” (priority 2009, dated 2020)
Where a SMILES comes first, the peptide text is derived from it. Bridges are numbered along the chain shown (N, C = ends). The star is where a group is joined. Heptanoyl = CCCCCCC(=O)*

Assays:
Recombinant human NEP = Recombinant human NEP (Homo sapiens, UniProt P08473); assay: in vitro NEP cleavage assay (disappearance of non-cleaved CNP variant); conditions: for NEP Cleavage (t1/2, min): 100 uM peptide, 1 ug/mL NEP, 0.1 M Tris pH 7, 37° C., adjusted t1/2, CNP22 normalized to 80 min
In short: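 Recombinant human NEP (1 ug/mL final) incubated with 100 uM CNP variant in 0.1 M Tris, pH 7, at 37° C for various times, then quenched with EDTA (10 mM final) and heat. Samples reduced and analysed by HPLC and mass spectrometry. Half-life derived from loss of intact variant over time.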

NPR-B = target: T1, NPR-B (Mus musculus, UniProt Q6VVW5); assay: stimulation of cGMP production in NIH3T3 cells; format: cell-based, murine; conditions: for cGMP Response rel. to 1 uM CNP22, 10 nM: NIH3T3 cells exposed to 10 nM peptide; for cGMP Response rel. to 1 uM CNP22, 10 nM / cGMP Response rel. to 1 uM CNP22, 1 uM: normalized to cell number and cGMP production in the presence of 1 uM wtCNP22; for cGMP Response rel. to 1 uM CNP22, 1 uM: NIH3T3 cells exposed to 1 uM peptide
T1 construct: Murine NIH3T3 cells express endogenously the CNP signaling receptor, NPR-B; endogenous in cells; host or cells: NIH3T3
T1 sequence (Q6VVW5 17-1047): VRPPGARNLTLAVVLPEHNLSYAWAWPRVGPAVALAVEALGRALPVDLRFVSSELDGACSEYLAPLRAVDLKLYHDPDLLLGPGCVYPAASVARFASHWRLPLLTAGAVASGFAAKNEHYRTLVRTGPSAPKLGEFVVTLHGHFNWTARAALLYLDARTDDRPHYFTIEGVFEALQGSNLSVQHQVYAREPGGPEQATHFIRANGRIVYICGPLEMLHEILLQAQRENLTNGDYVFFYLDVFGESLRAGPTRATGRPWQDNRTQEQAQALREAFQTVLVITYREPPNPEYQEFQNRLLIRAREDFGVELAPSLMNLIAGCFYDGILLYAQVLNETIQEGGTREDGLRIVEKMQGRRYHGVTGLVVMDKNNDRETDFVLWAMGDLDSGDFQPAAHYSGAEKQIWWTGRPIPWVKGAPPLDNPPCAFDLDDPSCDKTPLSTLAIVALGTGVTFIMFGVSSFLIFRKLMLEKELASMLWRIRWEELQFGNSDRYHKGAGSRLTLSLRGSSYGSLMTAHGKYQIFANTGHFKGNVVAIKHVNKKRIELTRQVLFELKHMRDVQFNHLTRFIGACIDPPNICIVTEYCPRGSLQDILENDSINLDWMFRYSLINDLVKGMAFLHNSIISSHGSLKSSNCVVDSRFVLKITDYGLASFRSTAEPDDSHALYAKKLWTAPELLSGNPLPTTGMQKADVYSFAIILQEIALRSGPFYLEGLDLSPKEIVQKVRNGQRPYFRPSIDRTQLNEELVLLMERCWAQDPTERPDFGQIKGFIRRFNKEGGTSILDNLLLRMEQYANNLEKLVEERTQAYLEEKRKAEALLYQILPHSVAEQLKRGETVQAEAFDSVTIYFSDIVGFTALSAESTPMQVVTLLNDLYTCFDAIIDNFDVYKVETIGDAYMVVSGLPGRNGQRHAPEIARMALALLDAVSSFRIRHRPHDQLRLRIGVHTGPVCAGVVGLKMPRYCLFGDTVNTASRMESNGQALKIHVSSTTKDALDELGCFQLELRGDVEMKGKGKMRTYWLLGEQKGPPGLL
Experimental: To determine the functional activity of CNP variants, the production of cGMP was measured in NIH3T3 cells exposed to the CNP variants. Murine NIH3T3 cells express endogenously the CNP signaling receptor, NPR-B, which shares 98% protein sequence identity with human NPR-B. NIH3T3 cells were cultured in high glucose Dulbecco's Modified Eagle Medium supplemented with 10% fetal calf serum and antibiotics at 37° C. with 5% CO2). Twenty four to 48 hours prior to signaling, cells were passaged to 12-well plates with a density of 2-5×10^5 cells per well at the time of the assay. CNP variants were resuspended in 1 mM HCl to a stock concentration of 1 mg/mL (455 uM for wtCNP22) and subsequently diluted to a 30 uM working stock solution with phosphate-buffered saline (PBS). Ten-fold serial dilutions were prepared in phosphate-buffered saline. Culture medium was removed from the cells and replaced with 0.4 mL PBS/Dulbecco's modified Eagle medium (50/50, v/v) containing 0.75 mM isobutylmethylxanine. Plates were incubated at 37° C., 5% CO2 for 15 minutes before addition of 0.2 mL CNP variant in PBS and continued incubation at 37° C. for 15 minutes. Reactions were stopped by the addition of 0.2 mL lysis buffer supplied with the CatchPoint cGMP assay kit (Molecular Devices), and cGMP production was determined with the CatchPoint cGMP Assay (Molecular Devices). All stimulation experiments were performed in duplicate.
Tables 1-4 summarize the ability of CNP variants having backbone or side chain modifications, amino acid substitutions, N-terminal amino acid extensions, and/or N-terminal PEGylation, respectively, to stimulate cGMP production in NIH3T3 cells. In all four tables, the values for cGMP production in NIH3T3 cells exposed to 10 nM or 1 uM CNP variant are normalized to cell number and cGMP production in the presence of 1 uM wtCNP22.

Chain of Recombinant human NEP (P08473 whole entry): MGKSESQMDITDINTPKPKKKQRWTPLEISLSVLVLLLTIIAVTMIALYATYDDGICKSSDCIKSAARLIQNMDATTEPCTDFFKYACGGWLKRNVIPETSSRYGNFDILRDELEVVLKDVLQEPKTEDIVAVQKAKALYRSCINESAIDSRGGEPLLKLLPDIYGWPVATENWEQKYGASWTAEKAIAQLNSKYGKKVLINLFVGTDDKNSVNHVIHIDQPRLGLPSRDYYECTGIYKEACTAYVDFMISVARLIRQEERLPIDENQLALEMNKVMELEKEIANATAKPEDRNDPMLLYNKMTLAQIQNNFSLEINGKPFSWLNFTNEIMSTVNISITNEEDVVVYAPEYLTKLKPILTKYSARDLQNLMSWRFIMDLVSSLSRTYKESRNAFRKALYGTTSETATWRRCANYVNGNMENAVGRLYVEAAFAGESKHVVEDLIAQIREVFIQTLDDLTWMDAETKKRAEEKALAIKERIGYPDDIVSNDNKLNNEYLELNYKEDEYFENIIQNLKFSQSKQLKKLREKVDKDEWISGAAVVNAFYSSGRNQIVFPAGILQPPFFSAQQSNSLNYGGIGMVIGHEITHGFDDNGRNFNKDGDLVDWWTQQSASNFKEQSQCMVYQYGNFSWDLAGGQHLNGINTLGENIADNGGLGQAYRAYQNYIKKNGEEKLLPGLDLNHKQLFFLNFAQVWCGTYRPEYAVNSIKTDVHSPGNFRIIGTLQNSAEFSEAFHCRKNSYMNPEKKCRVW

Structure (SMILES) | resistance to NEP cleavage (in words) (Recombinant human NEP) | NEP Cleavage (t1/2, min) (Recombinant human NEP) | cGMP Response rel. to 1 uM CNP22, 10 nM (NPR-B) | cGMP Response rel. to 1 uM CNP22, 1 uM (NPR-B) | NPR-B stimulation activity / cGMP production compared with wtCNP22 (in words) (NPR-B; NIH3T3 cells) | resistance to cleavage at the Cys6-Phe7 bond relative to wtCNP22 (Recombinant human NEP) | half-life compared to those for Analogs A, B, F and H (Recombinant human NEP; human) | half-life in comparison to wtCNP22 (Recombinant human NEP; human)
CC[C@H](C)[C@@H]1NC(=O)[C@H](CCCNC(=N)N)NC(=O)[C@H](CC(=O)O)NC(=O)[C@H](CC(C)C)N(C)C(=O)[C@H](CCCCN)NC(=O)[C@H](CC(C)C)N(C)C(=O)CNC(=O)[C@H](Cc2ccccc2)NC(=O)[C@@H](NC(=O)CNC(=O)[C@H](CCCCN)NC(=O)[C@H](CO)NC(=O)[C@H](CC(C)C)NC(=O)CN)CSSC[C@@H](C(=O)O)NC(=O)CNC(=O)[C@H](CC(C)C)NC(=O)CNC(=O)[C@H](CO)NC(=O)[C@H](CCSC)NC(=O)[C@H](CO)NC(=O)CNC1=O [Analog M, CNP22, N-methyl-L9, N-methyl-L11] | greatest resistance to NEP cleavage | >>160 min | 1 | 11 |  |  |  | 
CCCCCCC(=O)N[C@@H](CCC(=O)O)C(=O)N[C@@H](CC(C)C)C(=O)N[C@@H](CO)C(=O)N[C@@H](CCCCN)C(=O)NCC(=O)N[C@H]1CSSC[C@@H](C(=O)O)NC(=O)CNC(=O)[C@H](CC(C)C)NC(=O)CNC(=O)[C@H](CO)NC(=O)[C@H](CCSC)NC(=O)[C@H](CO)NC(=O)CNC(=O)[C@H]([C@@H](C)CC)NC(=O)[C@H](CCCNC(=N)N)NC(=O)[C@H](CC(=O)O)NC(=O)[C@H](CC(C)C)NC(=O)[C@H](CCCCN)NC(=O)[C@H](CC(C)C)NC(=O)CNC(=O)[C@H](Cc2ccccc2)NC1=O [Analog BB, Heptanoic acid (N-term.)-CNP22, G1E] (Heptanoyl-ELSKGCFGLKLDRIGSMSGLGC-OH; disulfide 6-22) |  | 45 to 65 min | 32 ± 4 | 84 ± 19 | comparable NPR-B stimulation activity as wtCNP22 |  |  | 
CC[C@H](C)[C@@H]1NC(=O)[C@H](CCCNC(=N)N)NC(=O)[C@H](CC(=O)O)NC(=O)[C@H](CC(C)C)NC(=O)[C@H](CCCCN)NC(=O)[C@H](CC(C)C)NC(=O)CNC(=O)[C@H](Cc2ccccc2)NC(=O)[C@@H](NC(=O)CNC(=O)[C@H](CCCNC(=N)N)NC(=O)[C@H](CO)NC(=O)[C@H](CC(C)C)NC(=O)CN)CSSC[C@@H](C(=O)O)NC(=O)CNC(=O)[C@H](CC(C)C)NC(=O)CNC(=O)[C@H](CO)NC(=O)[C@H](CCSC)NC(=O)[C@H](CO)NC(=O)[C@H](CC(N)=O)NC1=O [Analog BJ, CNP22, K4R, G15N] (H-GLSRGCFGLKLDRINSMSGLGC-OH; disulfide 6-22; N-terminus and C-terminus assumed) | greatest resistance to NEP cleavage |  | 4 | 41 |  |  |  | 
CC[C@H](C)[C@@H]1NC(=O)[C@H](CCCNC(=N)N)NC(=O)[C@H](CC(=O)O)NC(=O)[C@H](CC(C)C)NC(=O)[C@H](CCCCN)NC(=O)[C@H](CC(C)C)NC(=O)CNC(=O)[C@H](Cc2cccc(Cl)c2)NC(=O)[C@@H](NC(=O)CNC(=O)[C@H](CCCCN)NC(=O)[C@H](CO)NC(=O)[C@H](CC(C)C)NC(=O)CN)CSSC[C@@H](C(=O)O)NC(=O)CNC(=O)[C@H](CC(C)C)NC(=O)CNC(=O)[C@H](CO)NC(=O)[C@H](CCSC)NC(=O)[C@H](CO)NC(=O)CNC1=O [Analog G] |  | 135 min | 17 | 93 |  | resistance or improved resistance | 1.5-2.5 fold | about 1.5 times
CC[C@H](C)[C@@H]1NC(=O)[C@H](CCCNC(=N)N)NC(=O)[C@H](CC(=O)O)NC(=O)[C@H](CC(C)C)NC(=O)[C@H](CCCCN)NC(=O)[C@H](CC(C)C)N(C)C(=O)CNC(=O)[C@H](Cc2ccccc2)NC(=O)[C@@H](NC(=O)CNC(=O)[C@H](CCCCN)NC(=O)[C@H](CO)NC(=O)[C@H](CC(C)C)NC(=O)CN)CSSC[C@@H](C(=O)O)NC(=O)CNC(=O)[C@H](CC(C)C)N(C)C(=O)CNC(=O)[C@H](CO)NC(=O)[C@H](CCSC)NC(=O)[C@H](CO)NC(=O)CNC1=O [Analog K, CNP22, N-methyl-L9, N-methyl-L20] |  | 80 min | 1 | 1 |  |  |  | 
CC[C@H](C)[C@@H]1NC(=O)[C@H](CCCNC(=N)N)NC(=O)[C@H](CC(=O)O)NC(=O)[C@H](CC(C)C)NC(=O)[C@H](CCCCN)NC(=O)[C@H](CC(C)C)NC(=O)CNC(=O)[C@H](Cc2ccccc2)NC(=O)[C@@H](NC(=O)CNC(=O)[C@H](CCCNC(=N)N)NC(=O)[C@H](CO)NC(=O)[C@H](CC(C)C)NC(=O)CN)CSSC[C@@H](C(=O)O)NC(=O)CNC(=O)[C@H](CC(C)C)NC(=O)CNC(=O)[C@H](CO)NC(=O)[C@H](CCSC)NC(=O)[C@H](CO)NC(=O)[C@H](CO)NC1=O [Analog BK, CNP22, K4R, G15S] (H-GLSRGCFGLKLDRISSMSGLGC-OH; disulfide 6-22; N-terminus and C-terminus assumed) | greatest resistance to NEP cleavage | ≥160 min | 13 ± 1 | 71 ± 11 |  |  |  | 
